Data published in patent publication US12048679B2, “P53-destabilizing protein associated with proto-oncogene stemness as a therapeutic target and inhibitors thereof for use in treatment of cancer” (University of Southern California, priority 2021, dated 2024).
Entries after “also recorded” stand apart in the source; their conditions may differ.

What was measured:
[1] = tested on: NOTCH1 (NICD level) in CD133(+) or (−) TICs; assay: NOTCH1 processing: NICD produced after EDTA and DAPT treatment, Western blot; assay type: cell-based; settings: 20 μM DAPT (4 h) with 5 mM EDTA (20 min), CD133-positive and negative TICs
Description: FIGS. 1M and 1N depict that TBC1D15 affects NOTCH1 processing. • (1M) Western blot analysis for expression of endogenous NOTCH1 and N1ΔE-myc tag in CD133-positive and negative TICs, transfected with N1ΔE-FL and N1ΔE-ΔPEST and treated with vehicle or 20 μM DAPT (for 4 h), and 5 mM EDTA (for 20 min). • (1N) Western blot analysis for endogenous NOTCH1 and N1ΔE-myc tag in CD133-positive and negative TICs, transfected with N1ΔE-FL, N1ΔE-ΔPEST, and N1ΔE-V1745L (inhibition of gamma-secretase cleavage) and treated with vehicle or 20 μM DAPT.
Pin1 is known to promote tumor formation by binding to the NOTCH/NICD STR domain and regulating its activity. To determine how TBC1D15 affects NOTCH1 activity, we tested whether it regulates NOTCH1 processing through a combination of a disintegrin and metalloproteinase (ADAM) 17 and γ-secretase. We overexpressed a membrane-tethered, ligand-independent wild type NOTCH1, a NOTCH1 derivative [NΔE, that is constitutively cleaved by γ-secretase, releasing active NICD (Rustighi et al., EMBO Mol Med 6, 99-119. 10.1002/emmm.201302909)], NΔE-ΔPEST, and NΔE-V1745L in CD133(+) or (−) TICs. We then analyzed the effects of TBC1D15 on endogenous NOTCH1 processing by measuring the amount of NICD produced after ethylenediaminetetraacetic acid (EDTA) and DAPT treatment in vitro.

[2] = tested on: CD133-negative TICs / CD133− Huh7 cells; assay: Viability screening, CD133-negative control cells; assay type: cell-based; settings: FIG. 7C middle
dsRed-labeled TICs = assay: Tumor growth of dsRed-labeled TICs transplanted subcutaneously into NSG mice; assay type: in vivo; settings: for tumors with fluorescence emission (dsRed imaging): FIG. 7E
Description: (§1) FIGS. 7A-7G depict that activated NOTCH can be targeted by small molecule inhibitors. • (7A) Analyses of 3D structure of TBC1D15-NOTCH1 interaction identified TBC1D15 N terminal region docking with a.a.1805-2113 of NOTCH1. […] See SEQ ID NOs:6-12 and 1, as depicted. Both were labeled with FITC and used with recombinant TBC1D15 for fluorescence polarization assay. The mutant served as a negative control. […] HA-NUMB-3D is HA-tagged phosphor-mimetic mutant of NUMB protein wherein three serine resides of phosphorylation sites are all replaced with phosphor-mimetic amino acid, D (aspartic acid), to have constitutively phosphorylated status of NUMB protein that reduce the binding ability between NOTCH and NUMB. […] We then tested the therapeutic efficacy of the Inhibitor A in the PDX model of HCC. When the two oncogenic targets were restored by use of AAV vector-mediated co-transduction of both activated N1ICD and phosphormimetic NUMB, the tumor-killing effect of Inhibitor A was negated. Inhibitor A's tumor killing effects are largely dependent upon the inhibition of NOTCH activation and suppressing NUMB phosphorylation status.
We tested the therapeutic efficacy of Inhibitor A in the patient-derived xenograft (PDX) model of HCC. […] A separate pharmacokinetic study was conducted at three doses (10, 20, 40 mg/kg) administered i.p. into NSG mice to determine blood and tissue levels of the Inhibitor and tissue histology. From these studies, we assessed pharmacokinetic, toxicity, and efficacy data to select an optimal dosing scheme.

patient HCC = assay: Patient-derived xenograft (PDX) model of HCC in NSG mice; assay type: in vivo
Description: as §1
PDX mice were treated with the optimum dosing schedule. We monitored tumor sizes weekly three weeks post-transplantation for a total of 4 weeks (until the end of week 7). (If the tumor size reaches a diameter of ≥1.5 cm before 7 wk, we euthanized the mice per the IACUC guideline for tumor-bearing mice.) Our prior experience with the untreated HCC PDX model is 5-7 weeks are needed to generate tumors of the desired size (FIG. 7F). […]
To test the therapeutic efficacy of the new inhibitor for its effect on TBC1D15-NICD interaction, we employed a true patient-derived xenograft (PDX) HCC model (FIG. 7F). We determined if newly identified small molecule inhibitors of the TBC1D15-NICD interaction would prevent tumor growth in the HCC PDX mouse model and specifically if this therapeutic effect was negatively affected by NICD expression, NUMB-3D expression, or the co-expression of NICD and NUMB-3D.

[3] = tested on: CD133-positive TICs / CD133+ Huh7 cells; assay: Viability screening, CD133-positive cells; assay type: cell-based; settings: FIG. 7C middle
NANOG-GFP reporter = NANOG-GFP reporter in Huh7 cell line, FACS; assay type: cell-based; settings: FIG. 7C right
[4] = tested on: HEY1-CFP reporter (NOTCH-CFP); assay: HEY1-CFP (NOTCH-CFP) reporter in Huh7 cell line, FACS; assay type: cell-based; settings: FIG. 7C right
primary hepatocytes = assay: Viability of primary hepatocytes; assay type: cell-based; settings: FIG. 7C middle
Description: as §1

[5] = molecular target: T1, TBC1D15-NOTCH interaction (Homo sapiens, UniProt Q8TC07); assay: Fluorescence polarization assay of FITC-tagged NOTCH1 PEST/STR domain peptide with recombinant TBC1D15; assay type: binding; settings: FIG. 7C left
T1 sequence (Q8TC07 1-691): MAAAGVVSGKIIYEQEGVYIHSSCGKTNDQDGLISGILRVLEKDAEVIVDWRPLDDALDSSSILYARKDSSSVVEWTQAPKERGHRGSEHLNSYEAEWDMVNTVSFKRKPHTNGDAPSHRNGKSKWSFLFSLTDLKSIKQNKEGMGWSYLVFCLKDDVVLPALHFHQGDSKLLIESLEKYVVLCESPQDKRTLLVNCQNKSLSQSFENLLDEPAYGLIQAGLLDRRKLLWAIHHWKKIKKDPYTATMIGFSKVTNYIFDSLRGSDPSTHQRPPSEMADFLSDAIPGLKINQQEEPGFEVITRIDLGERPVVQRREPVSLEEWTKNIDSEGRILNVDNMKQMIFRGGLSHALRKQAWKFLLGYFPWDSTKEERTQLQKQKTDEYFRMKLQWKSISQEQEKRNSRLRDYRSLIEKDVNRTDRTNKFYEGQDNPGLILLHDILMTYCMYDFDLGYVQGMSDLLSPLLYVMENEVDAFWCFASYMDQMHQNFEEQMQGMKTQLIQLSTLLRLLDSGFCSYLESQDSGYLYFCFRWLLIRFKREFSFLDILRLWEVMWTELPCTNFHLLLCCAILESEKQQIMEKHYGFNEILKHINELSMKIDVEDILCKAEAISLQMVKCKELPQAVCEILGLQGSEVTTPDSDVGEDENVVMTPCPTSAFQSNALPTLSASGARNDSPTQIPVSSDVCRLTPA
Description: FIGS. 7A-7G depict that activated NOTCH can be targeted by small molecule inhibitors. • (7A) Analyses of 3D structure of TBC1D15-NOTCH1 interaction identified TBC1D15 N terminal region docking with a.a.1805-2113 of NOTCH1. […] See SEQ ID NOs:6-12 and 1, as depicted. Both were labeled with FITC and used with recombinant TBC1D15 for fluorescence polarization assay. The mutant served as a negative control. […] HA-NUMB-3D is HA-tagged phosphor-mimetic mutant of NUMB protein wherein three serine resides of phosphorylation sites are all replaced with phosphor-mimetic amino acid, D (aspartic acid), to have constitutively phosphorylated status of NUMB protein that reduce the binding ability between NOTCH and NUMB. […]
In some embodiments, an inhibitor of TBC1D15 is a compound that inhibits binding of TBC1D15 with NOTCH, or inhibits the interaction between TBC1D15 and NOTCH. […] In yet another aspect, the inhibitor of TBC1D15 can be identified through a fluorescence polarization assay, wherein a fluorophore-labeled, binding domain of NOTCH1 (e.g., the STR domain or the PEST domain, or a peptide fragment thereof, within NICD) would have an increased fluorescence polarization (FP) when it is non-covalently bound to TBC1D15, as depicted in FIG. 7B, or a decreased FP when it is not bound to TBC1D15 due to the presence of an inhibitor of TBC1D15. […]

[6] = tested on: p53, N1ICD and NANOG protein levels; assay: Immunoblots of xenograft tumors; assay type: in vivo, NSG mice; settings: Inhibitor A-treated xenograft tumors, FIG. 7G
Description: as §1
PDX mice were treated with the optimum dosing schedule. We monitored tumor sizes weekly three weeks post-transplantation for a total of 4 weeks (until the end of week 7). (If the tumor size reaches a diameter of ≥1.5 cm before 7 wk, we euthanized the mice per the IACUC guideline for tumor-bearing mice.) Our prior experience with the untreated HCC PDX model is 5-7 weeks are needed to generate tumors of the desired size (FIG. 7F). Experimental animals were euthanized at the end of the seven weeks study period and all tumor tissues were collected for histology for tumor characterization. Immunoblots were used to detect levels of for NANOG, TBC1D15, NICD, HES1 or HEY, CD133, p53, NUMB, and pS265-NUMB (FIG. 7G). Immunohistochemistry analysis was performed to monitor the expression of CD133, NANOG, p53, and Ki67.

For C[C@H](NC(=O)Cc1cc(F)cc(F)c1)C(=O)N[C@H](C(=O)OC(C)(C)C)c1ccccc1 [DAPT, N—[N-(3,5-Difluorophenacetyl)-L-alanyl]-S-phenylglycine t-butyl ester], the “effect on NICD level” value [1] was “no observed effect on NICD level”.
O=C(O)CCC/C=C\C[C@@H]1[C@@H](CC[C@@H](O)CCc2ccccc2)[C@H](O)C[C@@H]1O [Inhibitor A, (5Z,9α, 11α, 15R)-9,11,15-Trihydroxy-17-phenyl-18,19,20-trinor-prost-5-en-1-oic acid] was tested, and the “toxicity to CD133-negative cells” value [2] was “not CD133^− Huh7 cells”, the “tumors with fluorescence emission (dsRed imaging)” value (dsRed-labeled TICs; 10 mg/kg dose) was “Tumors with fluorescence emission were detected” and the “inhibition of tumor growth” value (dsRed-labeled TICs; 40 mg/kg i.p. 5 times a week) was “significant inhibition of tumor growth”. The “effect on tumor growth” value (dsRed-labeled TICs; dose series, NSG mice with dsRed-labeled TICs, FIG. 7D) was “dose-dependent inhibitory effect”, the “tumors with fluorescence emission (dsRed imaging)” value (dsRed-labeled TICs; doses higher than 10 mg/kg) was “not in those treated with higher doses” and the “growth suppression of patient HCC after N1ICD and HA-NUMB-3D co-transduction” value (patient HCC; HCC tissues infected with AAV vector delivering N1ICD and HA-NUMB-3D before transplantation) was “this effect largely diminished”. For the same molecule, the “therapeutic effect under NICD overexpression” value (patient HCC; NICD overexpression) was “NICD overexpression blocked the therapeutic effect”, the “growth of patient HCC transplanted into NSG mice” value (patient HCC; PDX model, FIG. 7F) was “suppressed the growth of patient HCC” and the “toxicity to CD133-positive cells” value [3] was “selectively killed CD133 positive TICs; also recorded: selectively kills CD133^+ Huh7 cells”. For the same molecule, the “NANOG-GFP / NANOG promoter reporter activity” value (NANOG-GFP reporter) was “reduced HEY1 and NANOG promoter activities; also recorded: abrogates NOTCH-CFP and NANOG-GFP reporter activities”, the “NOTCH-CFP / HEY1 promoter reporter activity” value [4] was “reduced HEY1 and NANOG promoter activities; also recorded: abrogates NOTCH-CFP and NANOG-GFP reporter activities” and the “toxicity to primary hepatocytes” value (primary hepatocytes) was “not CD133^− Huh7 cells or primary hepatocytes”. The “inhibition of NOTCH-TBC1D15 interaction” value [5] was “effectively blocked the NOTCH-TBC1D15 interaction; also recorded: suppressed interaction between TBC1D15 and NICD; also recorded: blocked NOTCH1/3-TBC1D15 interactions”, the “N1ICD protein level in xenograft tumors” value [6] was “reduced N1ICD and NANOG protein levels” and the “NANOG protein level in xenograft tumors” value [6] was “reduced N1ICD and NANOG protein levels”. The “p53 protein level in xenograft tumors” value [6] was “elevated p53 protein level”.
